Article PMC11578313, “Miniaturized Modular Click Chemistry‐enabled Rapid Discovery of Unique SARS‐CoV‐2 M^pro Inhibitors With Robust Potency and Drug‐like Profile” (Advanced Science, 2024)
“And” between values parts separate entries of the source, which are not always exact repeats. Equal values may be shown once. Read-outs that look alike come from different tables or passages of the source.

Experiments:
SARS‐CoV‐2 = test: microbe, parasite or virus in culture; type: cell-based; conditions: Severe acute respiratory syndrome coronavirus 2, Vero cells
[1] = cytotoxicity; cited from earlier work
in vitro [2] = conditions: human
in vitro [3] = conditions: African green monkey
[4] = test system: SARS‐CoV‐2 (hCoV‐19/Korea/KCDC06/2020, wild type); test: microbe, parasite or virus in culture; type: cell-based
SARS‐CoV‐2 M^pro = SARS‐CoV‐2 M^pro (Severe acute respiratory syndrome coronavirus 2, UniProt P0DTD1); test: SARS‐CoV‐2 main protease enzymatic assay (FRET inhibitor screening kit); type: biochemical; conditions: for inhibition at 5 µM: read-out: Inhibitionrate at @5μM
[5] = with CP‐100356, read-out: EC50 ± SD, Vero cells, with P‐gp inhibitor
[6] = without CP‐100356, read-out: EC50 ± SD, Vero cells, without P‐gp inhibitor
[7] = Calu‐3 cells, without CP‐100356, read-out: EC50 ± SD, Calu‐3 cells, without P‐gp inhibitor
[8] = Severe acute respiratory syndrome coronavirus 2, Calu-3, Calu‐3 cells, with CP‐100356, read-out: EC50 ± SD, Calu‐3 cells, with P‐gp inhibitor
[9] = Severe acute respiratory syndrome coronavirus 2, Calu-3, Calu‐3 cells, without CP‐100356, read-out: EC50 ± SD, Calu‐3 cells, without P‐gp inhibitor
[10] = Severe acute respiratory syndrome coronavirus 2, Calu-3, Calu‐3 cells, racemate, enantiomers and […] measured in the same system, read-out: EC50, anti‐SARS‐CoV‐2 activity in Calu‐3 cells (Figure 3B)

Compound | EC50 (SARS‐CoV‐2; [5]) | EC50 (SARS‐CoV‐2; [6]) | CC50 [1] | CC50 at 2 day (in vitro [2]; CC50 (Table 3), Calu‐3 cells) | CC50 at 2 day (in vitro [2]; CC50, Calu‐3 cells, MTT assay) | CC50 at 2 day (in vitro [3]) | EC50 [4, 7] | EC50 [4, 8] | EC50 [4, 9] | IC50 (SARS‐CoV‐2 M^pro) | inhibition of M^pro enzymatic activity, first round of screening (SARS‐CoV‐2 M^pro) | inhibition at 5 µM (SARS‐CoV‐2 M^pro) | CC50 at 2 day (in vitro [2]) | IC50 (SARS‐CoV‐2 M^pro; purified compounds, FRET assay) | CC50 at 2 day (in vitro [2]; CC50, column 9, after the Calu-3 EC50 columns) | EC50 [4, 10]
Cc1cncc(C(=O)N2C[C@H]3CC[C@@H](C2)N3C(c2cccc(F)c2)c2cccc(F)c2)c1 [AA‐625, reference compound] | 2020 ± 76 nM | 2050 ± 56 nM | 22500 nM | 42900 ± 414 nM | > 100000 nM | 43900 ± 2940 nM | 148 ± 7 nM | < 10 nM | 150 nM | 900 nM and 904 nM | 57% | 87.9% | – | – | – | –
O=C(c1cccnc1)N1CCN(C(c2cccc(F)c2)c2cn(CCc3ccsc3)nn2)CC1 (centres unmarked) [Compound C4N17] | 2460 ± 314 nM | 2740 ± 110 nM | – | – | – | > 100000 nM | – | 880 ± 109 nM | 1850 ± 139 nM | – | 86% | 72.3% | > 100000 nM | 1870 ± 13 nM | – | –
O=C(c1cccnc1)N1CCN(C(c2cccc(F)c2)c2cn(CCN3C(=O)c4ccccc4C3=O)nn2)CC1 (centres unmarked) [Compound C4N21] | > 10000 nM | > 69800 nM | – | – | – | 69800 ± 1050 nM | – | 4020 ± 566 nM | 74400 ± 36300 nM | – | 82% | 80.2% | > 100000 nM | 1300 ± 17 nM | – | –
Cc1cncc(C(=O)N2C[C@H]3CC[C@@H](C2)N3C(c2cccc(F)c2)c2cn(Cc3cccc([N+](=O)[O-])c3)nn2)c1 (some centres unmarked) [Compound C5N5] | 1850 ± 526 nM | 1790 ± 21 nM | – | – | > 100000 nM | > 100000 nM | – | 2560 ± 86 nM | 2860 ± 395 nM | 1230 ± 1 nM | 93% | 79.2% | – | – | – | –
Cc1cncc(C(=O)N2C[C@H]3CC[C@@H](C2)N3C(c2cccc(F)c2)c2cn(Cc3ccc([N+](=O)[O-])cc3)nn2)c1 (some centres unmarked) [Compound C5N6] | 1740 ± 238 nM | 1830 ± 30 nM | – | – | > 100000 nM | > 100000 nM | 767 ± 156 nM | 1050 ± 14 nM | < 1000 nM | 2500 ± 13 nM | 88% | 68.8% | – | – | – | –
Cc1cncc(C(=O)N2C[C@H]3CC[C@@H](C2)N3C(c2cccc(F)c2)c2cn(CCc3ccccc3)nn2)c1 (some centres unmarked) [Compound C5N16] | 1890 ± 524 nM | 2000 ± 21 nM | – | – | > 100000 nM | > 100000 nM | – | 80 ± 2 nM | – | 283 ± 18 nM | 99% | 93% | – | – | – | –
Cc1cncc(C(=O)N2C[C@H]3CC[C@@H](C2)N3[C@@H](c2cccc(F)c2)c2cn(CCc3ccsc3)nn2)c1 [Compound C5N17A] | – | – | – | – | – | – | – | – | – | 3180 nM | – | 53.2% | – | – | > 100000 nM | 5950 nM
Cc1cncc(C(=O)N2C[C@H]3CC[C@@H](C2)N3C(c2cccc(F)c2)c2cn(CCc3ccsc3)nn2)c1 (some centres unmarked) [Compound C5N17] | 363 ± 29 nM | 1570 ± 131 nM | – | > 100000 nM | > 100000 nM | > 100000 nM | – | 28 ± 2 nM | 166 ± 11 nM | 177 ± 16 nM | 101% | 98.7% | – | – | – | 200 ± 27 nM
Cc1cncc(C(=O)N2C[C@H]3CC[C@@H](C2)N3C(c2cccc(F)c2)c2cn(CCN3C(=O)c4ccccc4C3=O)nn2)c1 (some centres unmarked) [Compound C5N21] | 1380 ± 119 nM | 16200 ± 410 nM | – | – | > 100000 nM | > 100000 nM | 591 ± 11 nM | 259 ± 43 nM | < 1000 nM | 150 ± 4 nM | 100% | 99.5% | – | – | – | –
COC(=O)CCCn1cc(C(c2cccc(F)c2)N2[C@@H]3CC[C@H]2CN(C(=O)c2cncc(C)c2)C3)nn1 (some centres unmarked) [Compound C5N39] | 1600 ± 249 nM | 1870 ± 270 nM | – | – | > 100000 nM | > 100000 nM | 899 ± 312 nM | 253 ± 26 nM | < 1000 nM | 253 ± 10 nM | 96% | 87.6% | – | – | – | –
